Data reported in doi:10.1101/2021.05.29.446083v1 (biorxiv, 2021).
Substitutions are numbered along the chain they refer to.

How the values were obtained:
5-HT1F [1] = target: T1, 5-HT1F (Homo sapiens, UniProt P30939, F310A); experiment: NanoBiT Gi recruitment assay; assay type: cell-based
T1 sequence (P30939 1-366 F310A): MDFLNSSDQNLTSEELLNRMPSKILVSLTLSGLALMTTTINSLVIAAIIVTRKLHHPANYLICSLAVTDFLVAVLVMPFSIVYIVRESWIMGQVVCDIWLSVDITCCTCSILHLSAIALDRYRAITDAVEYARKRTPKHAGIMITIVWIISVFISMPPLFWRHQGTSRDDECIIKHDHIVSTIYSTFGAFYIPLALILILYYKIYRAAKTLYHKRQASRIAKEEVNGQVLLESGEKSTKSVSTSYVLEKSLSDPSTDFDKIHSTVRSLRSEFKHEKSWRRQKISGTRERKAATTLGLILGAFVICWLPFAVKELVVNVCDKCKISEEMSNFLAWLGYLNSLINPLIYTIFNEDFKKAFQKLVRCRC

5-HT1F [2] = target: T2, 5-HT1F (Homo sapiens, UniProt P30939, I104A); experiment: NanoBiT Gi recruitment assay; assay type: cell-based
T2 sequence (P30939 1-366 I104A): T1 sequence (P30939 1-366 F310A) with I104A, A310F

5-HT1F [3] = target: T3, 5-HT1F (Homo sapiens, UniProt P30939); experiment: NanoBiT Gi recruitment assay; assay type: cell-based
T3 sequence (P30939 1-366): T1 sequence (P30939 1-366 F310A) with A310F

5-HT1F–Gi1 complex = 5-HT1F–Gi1 complex (Homo sapiens, UniProt P30939); experiment: cryo-EM structure, […] Å; conditions: orthosteric and extended binding pocket; 10 μM lasmiditan, pH 7.4

SMILES: CN1CCC(C(=O)c2cccc(NC(=O)c3c(F)cc(F)cc3F)n2)CC1 [lasmiditan]
- EC50 (5-HT1F [1]): > 100 µM
- EC50 (5-HT1F [2]): 2.19 µM
- EC50 (5-HT1F [3]): 0.0302 µM
- cryo-EM structure, 3.4 Å (5-HT1F–Gi1 complex): the lasmiditan-bound 5-HT1F–Gi complex
